In paper PMC5344293, “A phase 1 dose-escalation and expansion study of binimetinib (MEK162), a potent and selective oral MEK1/2 inhibitor” (British Journal of Cancer, 2017):
Values joined by “and” are separate entries in the source; they are usually repeats but may differ in a detail not shown here. Identical values can stand only once. “Also recorded” adds a separate entry of the source. Like-named read-outs stand apart in the source and are kept apart here.

What was measured:
[1] = molecular target: purified MEK enzyme; set-up: method as in Lee et al, 2010; Woessner et al, 2010; settings: ref Lee et al, 2010, Woessner et al, read-out: half-maximal inhibitory concentration; cited from earlier work
[2] = tested on: advanced solid tumours; assay: Tumour response, RECIST version 1.1; assay type: in vivo, human
Method: Efficacy was assessed through radiologic scans and clinical measurements of disease sites (if applicable), and evaluation of serologic tumour markers in patient blood samples as appropriate for tumour type. Tumour assessments were performed within 21 days before the first dose and then every 6 weeks starting at the end of cycle 2. Tumour response was evaluated by the investigator using Response Evaluation Criteria in Solid Tumours (RECIST) version 1.1 criteria. Tumour marker levels were incorporated into the overall response assessment per RECIST.
All patients who received ⩾1 dose of binimetinib were included in the safety analysis. Patients in the safety analysis who had ⩾1 measurable lesion at baseline and at least 1 post-baseline disease assessment were evaluable for efficacy. Kaplan–Meier estimates of progression-free survival (PFS) and overall survival (OS) were performed for patients in the expansion phase ([Kaplan and Meier, 1958]) using SAS Version 9.2 (SAS Institute Inc., Cary, NC, USA).

[3] = tested on: pMEK; assay: Skin punch biopsy pMEK expression; assay type: in vivo, human; settings: pre-dose and post-dose skin punch biopsies
[4] = tested on: NRAS-mutant melanoma; set-up: method as in Dummer et al, 2016; settings: patients with NRAS-mutant melanoma; ref Dummer et al, 2016; cited from earlier work
[5] = tested on: human cancer cell lines; set-up: method as in Lee et al, 2010; settings: subset of cells; particularly active with activating BRAF, NRAS, KRAS mutations; ref Lee et al, 2010; cited from earlier work
[6] = tested on: NRAS-mutant melanoma; set-up: method as in Ascierto et al, 2013; Van Herpen et al, 2015; settings: patients with advanced NRAS-mutant melanoma; ref Ascierto et al, 2013; Van Herpen et al, 2015; cited from earlier work
[7] = Plasma pharmacokinetics in patients; assay type: in vivo, human; settings: for RAUC (accumulation ratio) / Cmax / AUC(0-t): geometric mean (% CV); for Cmax / AUC(0-t) / Tmax: human, plasma, oral
Method: Blood for plasma binimetinib and metabolite concentration assessments was collected on cycle 1 day 1 (pre-dose and 30 min to 24 h post dose), cycle 1 day 15 (pre-dose and 30 min to 8 h post dose), and cycles 2 to 8 day 1 (pre-dose) from patients in the dose-escalation phase and from selected patients in the biliary cancer cohort of the expansion phase (intensive pharmacokinetic sampling). The remaining patients in the expansion phase underwent limited pharmacokinetic sampling on cycle 1 day 1 (pre-dose), cycle 1 day 8 (pre-dose), cycle 1 day 15 (pre-dose and 30 min to 8 h post dose), cycle 2 day 1 (pre-dose), cycle 3 day 1 (pre-dose and 30 min to 8 h post dose), and cycles 4–8 day 1 (pre-dose). Standard non-compartmental pharmacokinetic parameters were calculated on serial pharmacokinetic collection days (cycle 1 day 1 and cycle 1 day 15 for the dose-escalation phase; cycle 1 day 15 and cycle 3 day 1 for the expansion phase) for each patient and summarised by cohort. Dose proportionality, accumulation, and metabolite-to-parent ratio were assessed as appropriate.

[8] = tested on: C-reactive protein, interferon, IL-10, IL-12p70, IL-1β, IL-6, or IL-8; assay: Serum cytokines other than TNF-α; assay type: in vivo, human

SMILES: Cn1cnc2c(F)c(Nc3ccc(Br)cc3F)c(C(=O)NOCCO)cc21 [binimetinib]
- IC50 [1]: 12 nM
- Best response of stable disease, patients [2]: 36%
- Objective responses among patients with biliary cancer ([2]; 3 of 30 patients with biliary cancer): 10%
- Responses in patients with colorectal cancer ([2]; KRAS- or BRAF-mutant cohorts): no responses
- Objective responses, number of patients ([2]; all in patients with biliary cancer): Three
- Duration of complete response ([2]; biliary cancer): 11.3 months
- Duration of partial response ([2]; biliary cancer, two patients): 10.2 months and 17.9 months
- Objective responses ([2]; of 91 patients evaluable for response): 3%
- Complete responses, number of patients ([2]; patients with biliary cancer): one
- Partial responses, number of patients ([2]; patients with biliary cancer): two
- Median duration of stable disease ([2]; range, 0.92–11.53 months): 3.94 months
- Change in skin pMEK relative to baseline [3]: no notable changes
- PFS vs dacarbazine [4]: significantly longer PFS
- Inhibition of proliferation [5]: potently inhibits
- Response rate [6]: 15%
- RAUC (accumulation ratio) ([7]; cycle 1 day 15, Total (N=26)): 1.44 (32.8)
- RAUC (accumulation ratio) ([7]; cycle 1 day 15, expansion Biliary 60 mg BID (n=7)): 2.50 (NC)
- Cmax ([7]; 30 mg BID, cycle 1 day 1, dose-escalation 30 mg BID (n=4)): 327 ng/mL
- AUC(0-t) ([7]; 30 mg BID, cycle 1 day 1, dose-escalation 30 mg BID (n=4), intensive sampling, read-out: AUC0–8): 1000 ng·h/mL
- Tmax ([7]; 30 mg BID, cycle 1 day 1, dose-escalation 30 mg BID (n=4), median (minimum–maximum), read-out: tmax): 1.51 h
- Tmax ([7]; 30 mg BID, cycle 1 day 15, dose-escalation 30 mg BID (n=4), median (minimum–maximum), read-out: tmax): 1.5 h
- Cmax ([7]; 30 mg, cycle 1 day 15, dose-escalation 30 mg BID (n=4)): 417 ng/mL
- Cmax ([7]; 45 mg BID, cycle 1 day 1, dose-escalation 45 mg BID (n=4)): 241 ng/mL
- AUC(0-t) ([7]; 45 mg BID, cycle 1 day 1, dose-escalation 45 mg BID (n=4), intensive sampling, read-out: AUC0–8): 964 ng·h/mL
- Tmax ([7]; 45 mg BID, cycle 1 day 1, dose-escalation 45 mg BID (n=4), median (minimum–maximum), read-out: tmax): 2.53 h
- Tmax ([7]; 45 mg BID, cycle 1 day 15, dose-escalation 45 mg BID (n=4), median (minimum–maximum), read-out: tmax): 2 h
- Cmax ([7]; 45 mg, cycle 1 day 15, dose-escalation 45 mg BID (n=4)): 273 ng/mL
- AUC(0-t) ([7]; 45 mg, cycle 1 day 15, dose-escalation 45 mg BID (n=4), read-out: AUC0-8): 1490 ng·h/mL
- Cmax ([7]; 60 mg BID, cycle 1 day 1, dose-escalation 60 mg BID (n=7)): 545 ng/mL
- AUC(0-t) ([7]; 60 mg BID, cycle 1 day 1, dose-escalation 60 mg BID (n=7), intensive sampling, read-out: AUC0–8): 1710 ng·h/mL
- Tmax ([7]; 60 mg BID, cycle 1 day 1, dose-escalation 60 mg BID (n=7), median (minimum–maximum), read-out: tmax): 1 h
- Tmax ([7]; 60 mg BID, cycle 1 day 15, dose-escalation 60 mg BID (n=7), median (minimum–maximum), read-out: tmax): 3 h
- Cmax ([7]; 60 mg, cycle 1 day 1, expansion Biliary 60 mg BID (n=7)): 365 ng/mL
- AUC(0-t) ([7]; 60 mg, cycle 1 day 1, expansion Biliary 60 mg BID (n=7), intensive sampling, read-out: AUC0–8): 1090 ng·h/mL
- Tmax ([7]; 60 mg, cycle 1 day 1, expansion Biliary 60 mg BID (n=7), median (minimum–maximum), read-out: tmax): 1.5 h
- Cmax ([7]; 60 mg, cycle 1 day 15, dose-escalation 60 mg BID (n=7)): 512 ng/mL
- AUC(0-t) ([7]; 60 mg, cycle 1 day 15, dose-escalation 60 mg BID (n=7), read-out: AUC0-8): 1820 ng·h/mL
- Cmax ([7]; 60 mg, cycle 1 day 15, expansion Biliary 60 mg BID (n=7)): 594 ng/mL
- AUC(0-t) ([7]; 60 mg, cycle 1 day 15, expansion Biliary 60 mg BID (n=7), read-out: AUC0-8): 3760 ng·h/mL
- Tmax ([7]; 60 mg, cycle 1 day 15, expansion Biliary 60 mg BID (n=7), median (minimum–maximum), read-out: tmax): 1.5 h
- Cmax ([7]; 80 mg BID, cycle 1 day 1, dose-escalation 80 mg BID (n=4)): 687 ng/mL
- AUC(0-t) ([7]; 80 mg BID, cycle 1 day 1, dose-escalation 80 mg BID (n=4), intensive sampling, read-out: AUC0–8): 2220 ng·h/mL
- Tmax ([7]; 80 mg BID, cycle 1 day 1, dose-escalation 80 mg BID (n=4), median (minimum–maximum), read-out: tmax): 2.02 h
- Tmax ([7]; across all dose levels and both sampling schemes, read-out: tmax, median values): 0.5 to 4 h
- Tmax ([7]; cycle 1 day 1, Total (N=26), median (minimum–maximum), read-out: tmax): 1.5 h
- Tmax ([7]; cycle 1 day 15, Total (N=26), median (minimum–maximum), read-out: tmax): 1.5 h
- Pre-dose concentrations on cycle 1 day 15 versus 12 h concentrations on day 1 ([7]; intensive pharmacokinetic sampling): up to threefold higher
- Steady state ([7]; limited sampling, 45 and 60 mg BID, no formal steady-state analysis): likely at steady state by cycle 1 day 15
- Dose proportionality of exposure ([7]; over the dose range tested, days 1 and 15 of cycle 1): Dose-proportional increases; also recorded: approximately dose proportional
- Changes in C-reactive protein, interferon, IL-10, IL-12p70, IL-1β, IL-6, or IL-8 [8]: no notable changes
